The source of these data is patent US20200246284A1 (Academia Sinica, priority 2015, published 2020).

Data set [1] has as its system AML cell lines. The data set can be described thus: Cytotoxicity, panel of AML cell lines. It is filed as cell-based, human. The source says:
Human cord blood CD34+ cells transduced with MLL-AF9 gene: MA-10, MA-18. Human bone marrow CD34+ cells transduced with MLL-AF9 gene: MA-23. Human cord blood CD34+ cells transduced with MLL-AF9 and N-ras genes: MA-9.3, MA-9.6. • b) Growth factor independent leukemic cell lines. Human MA-10 cells transduced with Flt3 ITD (W51) were adapted to in vitro proliferation without growth factors (Moore Laboratory).

In data set [2] the test system is NECB-1. The experiment in a line: Cytotoxicity mantle cell lymphoma. The note with it: read-out: cytotoxicity IC50; NECB-1, mantle cell lymphoma.
Description: (§2) After 72 hours, the cultures were pulsed with Alamar Blue overnight, and the fluorescent intensity of resulted cultures was measured by a Synergy H1 plate-reader (BioTek Inc).
Data set [3] deals with H526 xenografts. The data set can be described thus: SCLC H526 xenograft in NSG mice. It is filed as in vivo, mouse. The note with it: 30 mg/kg i.v. every second day; d30. The source says: Xenografts of GFP/Luciferase-labeled H526 were established in groups of ten NSG male mice aged 12 wks by subcutaneous injection of 50,000 tumor cells.
Data set [4] deals with Granta. The experiment in a line: Combination with BO-1055, MCL (Tables 28, 29). The data set is classed as cell-based, human. The note with it: read-out: IC50 single drug.
The subject of data set [5] is spontaneous murine B-cell lymphoma. The note with it: mouse.
Data set [6] concerns SUDHL-6. The note with it: human.
Description: as §2
A short description of data set [7]: in vitro. The note with it: human, plasma.
Data set [8] has as its system Mino. The experiment in a line: Combination with BO-1055, MCL (Tables 28, 29). It is filed as cell-based, human. The note with it: read-out: IC50 single drug.
The subject of data set [9] is Human Cancer Cell lines, Primary Patient Tumor Samples and normal tissues. The experiment in a line: Sensitivity classes over panel of cancer lines and normal tissues. The data set is classed as cell-based. The note with it: tumor cell lines of Table 12.
The subject of data set [10] is SMS-CTR rhabdomyosarcoma. The experiment in a line: Cytotoxicity sarcoma. The data set is classed as cell-based. The note with it: Homo sapiens; SMS-CTR embryonal type.
Data set [11] has as its system Caco-2 cell monolayers. The experiment in a line: Caco-2 permeability. The data set is classed as in vitro ADME, human. The source says: (§1) The Caco-2 permeability assay is considered to be the industry gold standard for in vitro prediction of in vivo human intestinal permeability and bioavailability of orally administered drugs. The Caco-2 permeability assay uses an established method for predicting the absorption of therapeutic compounds across the GIT by measuring the rate of transport across a contiguous Caco-2 cell monolayer. […] The Caco-2 assay measures the passage of a test compound from a donor chamber into an acceptor chamber through a porous membrane on which a confluent Caco-2 monolayer forms a cellular barrier.

Data set [12] is described as follows: Caco-2 permeability. The data set is classed as in vitro ADME, human. The note with it: human, Caco-2, 10 μM.
Description: as §1

In data set [13] the test system is Ly3 (OCI-LY3). The note with it: human.
Description: as §2
Data set [14] is described as follows: Pharmacokinetics, single IV 1 mg/kg or oral 10 mg/kg. It is filed as in vivo, Sprague Dawley rats. The note with it: for oral absorption: 10 mg/kg. The procedure:
A single intravenous dose was administered via an indwelling catheter in the jugular vein to a group of 2 male rats at a dose level of 1.0 mg/kg. The formulations were prepared as a solution in 5.0% w/v DMSO with 10% w/v Cremophor in distilled water. […] The formulations were prepared as a solution in 0.5% w/v CMC in distilled water. Serial blood samples were collected from the jugular vein catheter up to 24 h post-dose from all animals in groups.

The test system of data set [15] is H1703. The data set is classed as cell-based, human.
The test system of data set [16] is MOR. The experiment in a line: Cytotoxicity NSCLC. The data set is classed as cell-based, human.
Data set [17] deals with H596. The data set is classed as cell-based, human.
Data set [18] relates to H60. The experiment in a line: Cytotoxicity SCLC 72 hr alamar blue. The data set is classed as cell-based, human.
The subject of data set [19] is H226. It is filed as cell-based, human.
For data set [20], the system named is HS578 breast epithelium. The experiment in a line: Cytotoxicity normal tissue 72 hr. It is filed as cell-based, human.
Data set [21] deals with H2228. The data set is classed as cell-based, human.
For data set [22], the system named is CL141T. The data set is classed as cell-based, human.
Data set [23] concerns H211. The data set can be described thus: Cytotoxicity SCLC 72 hr alamar blue. The data set is classed as cell-based, human. In general terms: Alamar Blue is a resazurin reagent that responds to reducing activity.
Data set [24] concerns H1781. It is filed as cell-based, human.
Data set [25] has as its system H3122. It is filed as cell-based, human.
Data set [26] has as its system H525. The data set is classed as cell-based, human.
In data set [27] the test system is H322. The data set is classed as cell-based, human.
Data set [28] relates to HCC15. It is filed as cell-based, human.
In data set [29] the test system is SK-MES-1. The data set is classed as cell-based, human.
Data set [30] concerns H3255. It is filed as cell-based, human.
The test system of data set [31] is H520. It is filed as cell-based, human.
The test system of data set [32] is H841. The experiment in a line: Cytotoxicity SCLC 72 hr alamar blue. It is filed as cell-based, human.
The test system of data set [33] is H187. The data set can be described thus: Cytotoxicity SCLC 72 hr alamar blue. The data set is classed as cell-based, human.
For data set [34], the system named is H209. The experiment in a line: Cytotoxicity SCLC 72 hr alamar blue. The data set is classed as cell-based, human.

pIC50: −log10 of the molar value. Several values for one entry are separate records, joined by “and”; a condition that tells them apart may be missing. Equal values may be shown once.

The term pIC50 denotes the IC50 on a negative log10 scale, so that one unit is a factor of ten. Usually fraction unbound stands for free concentration divided by total concentration. As usually defined, the Papp B→A is the apparent permeability from the basolateral to the apical side of a cell layer.

For `CN(C)CCNC(=O)c1cccc(NC(=O)Nc2ccc(N(CCCl)CCCl)cc2)c1` [BO-1055, Ureidomustine], the pIC50 in data set [1] (Homo sapiens, THP1 and MOLM13) is 6.35 to 6.74; in [2] it was 5.11 and 5.08; in data set [4], 5.28 and 5.26 and 5.18; in data set [5] it was 6.34; in [6], 5.23; in data set [8], 6.94 and 6.98 and 7.00. Also, the pIC50 in [10] was 5.00; in [13] it was 5.46. Also, the “increase of cytotoxicity by MLL-AF9” value in [1] (MLL-AF9 transduced vs normal CB or BM CD34+) was 25-40 fold. In addition, the tumor-free mice in [3] was 3/5. The molecule further returned a fraction unbound in data set [7] of 0.01. In [7], this molecule showed an unbound share (fraction unbound) at 2 h of 0.01. In data set [9], the “share of tested cell lines with IC50 in sub-μM range” value stood at 30%. The “Papp (B to A)” value in [11] (10 μM) was “Papp (B to A) = 7.5 × 10−6 cm/sec”. This molecule had a mass balance in [11] (A→B and B→A directions) of less than 50%. In data set [11] (Caco-2), the “Papp coefficient A→B” value was “not detected”. This molecule also showed an apparent permeability from basolateral to apical (Papp B→A) at 10 μM in data set [12] of 7.05 ×10⁻⁶ cm/s. Further, in data set [14] (IV 1 mg/kg, rat), the “AUC (0-last)” value worked out at 925.81 ng·h/mL. In addition, the “AUC (0-∞)” value in [14] (IV 1 mg/kg, rat) came to 934.93 ng·h/mL. The CLss in data set [14] (IV 1 mg/kg, rat) is on record as 18.00 mL/min/kg. Moreover, in [14] (IV 1 mg/kg, rat), the Vss is recorded as 0.15 L/kg. Moreover, the t1/2 in [14] (IV 1 mg/kg, rat) amounted to 34.8 min. The molecule also had a C0 in [14] (male, Sprague Dawley, plasma, IV 1 mg/kg, rat) of 12000 ng/mL. Also, the “plasma levels after oral administration” value in data set [14] (oral 10 mg/kg, LLOQ […]) was “No quantifiable levels”. In addition, the oral absorption result in data set [14] (oral 10 mg/kg, rat) was “no oral absorption”; in data set [14] (oral 10 mg/kg, rat, listed as ureidomustine), “No Oral Absorption”.

With `N.N.[Cl][Pt][Cl]` [Cisplatin], the negative logarithm of the IC50 (pIC50) in [15] is no more than 4.70; in data set [16], 5.41; in data set [17], no more than 5.00; in [18], 5.68; in data set [19], 5.54; in data set [20], less than 4.00. The pIC50 in [21] was no more than 4.60; in data set [22], 5.61; in data set [23] it was 5.92; in data set [24], 5.78; in [25], no more than 4.52; in data set [26] it was 5.11. In addition, the pIC50 in data set [27] was no more than 5.00; in [28], no more than 4.07; in data set [29], no more than 4.30; in data set [30] it was no more than 4.60; in [31] it was 5.04; in data set [32], no more than 4.70. Also, the negative-log IC50 (pIC50) in data set [33] is 6.00; in [34] it was 6.51.
